Earlier results, collected in patent US20250283018A1, “TOILET RIM BLOCKS WITH SCENT CHANGE” (SYMRISE AG, priority 2021, published 2025).
Like-named read-outs stand apart in the source and are kept apart here.

Columns and labels:
[1] = not given; remark: listed apart in the source
[2] = Table 3, components of POWER PLATIN

Compound	Bp. [° C.] (Table 1, components of MARINA)	logP ([1]; Table 1, components of MARINA)	Bp. [° C.] (list of selected fragrances)	logP ([1]; list of selected fragrances)	Bp. [° C.] [2]	further results
CC(=O)OCCC(C)C [ISOAMYLACETAT]	–	–	–	–	–	Bp. [° C.] (Table 2, components of PEACH): 143 °C; logP ([1]; Table 2, components of PEACH): 2.26
CC1CC(C)(c2ccccc2)OC(C)O1 (stereo not shown) [FLOROPAL]	273 °C	3.11	–	–	–	–
O=C1CCCCCCCCCCCCCCO1 [OMEGA PENTADECALACTONE]	–	–	341 °C	5.35	–	–
CC(C)=CCCC1=CCC(C)(C=O)CC1 (stereo not shown) [PRECYCLEMONE B]	267 °C	5.19	–	–	267 °C	logP [1, 2]: 5.19
CC(C)=CCCC(C)CC#N (stereo not shown)	235 °C	3.55	–	–	–	–
CARYOPHYLLENACETAT	306 °C	5.75	306 °C	5.52	–	Bp. [° C.] (Table 2, components of PEACH): 306 °C; logP ([1]; Table 2, components of PEACH): 5.75
SPIRO[1,3-DIOXOLANE-2,5′-(4′,4′,8′,8′-TETRAMETHYL-HEXAHYDRO-3′,9′-MENTHANONAPHTHALENE)]	–	–	280 °C	5.16	–	–
O=C(OCc1ccccc1)c1ccccc1O [BENZYLSALICYLAT]	–	–	325 °C	4.06	–	–
CC1=CCC(C=CC(C)C(C)O)C1(C)C (stereo in doubt) [EBANOL]	–	–	–	–	274 °C	logP [1, 2]: 4.93
CC1=CCC(=C(C)C)CC1 [TERPINOLEN DEXTRO]	–	–	–	–	197 °C	logP [1, 2]: 4.88
CCCCCCCCCC(C)=O [UNDECANON-2]	–	–	–	–	231.5 °C	logP [1, 2]: 3.69
C=C(C)C1CC=C(C)C(OC(C)=O)C1 (stereo not shown) [ACETIC ACID CARVYL ESTER]	–	–	92 °C	4.26	–	–
CCCCCCC1CCC(=O)O1 (stereo not shown) [GAMA DECALACTONE]	–	–	266 °C	2.36	–	Bp. [° C.] (Table 2, components of PEACH): 266 °C; logP ([1]; Table 2, components of PEACH): 2.57
CCC(=CCC1CC=C(C)C1(C)C)CO (stereo not shown) [ETHYL TRIMETHYLCYCLOPENTENE BUTENOL]	–	–	276 °C	4.63	–	–
CC(=O)/C=C/C1=C(C)CCCC1(C)C [BETA IONONE]	259 °C	–	259 °C	3.77	–	–
C/C=C/C(=O)C1=C(C)C=CCC1(C)C [DAMASCENON]	–	–	–	–	263 °C	Bp. [° C.] (Table 2, components of PEACH): 263 °C; logP ([1]; Table 2, components of PEACH): 4.21; logP [1, 2]: 4.21
ISOBUTYLMENTHONE	211 °C	2.94	–	–	–	–
Cc1ccc2c(c1)OCC(=O)CO2 [METHYLBENZODIOXEPINON]	–	–	289 °C	1.8	–	–
CC(C)=CCCC(C)CCOC(=O)C(C)C (stereo not shown) [CITRONELLYLISOBUTYRAT]	–	–	267 °C	5.04	–	Bp. [° C.] (Table 2, components of PEACH): 267 °C; logP ([1]; Table 2, components of PEACH): 5.47
COC1CC2CC1C1CC(C=O)CC21 (stereo not shown) [SCENTENAL]	273 °C	2.03	–	–	–	–
CCCCCCCCCCC=O [ALDEHYD C11 UNDECANAL]	223 °C	4.25	–	–	–	–
CCCCCCCCCCO [ALKOHOL C10]	231.1 °C	3.79	–	–	–	–
C/C=C/C(=O)C1C(C)C=CCC1(C)C (stereo not shown) [DELTA DEMASCONE]	–	–	251 °C	–	251 °C	Bp. [° C.] (Table 2, components of PEACH): 251 °C; logP ([1]; Table 2, components of PEACH): 4.16; logP [1, 2]: 4.16
CCc1ccc(CC(C)(C)C=O)cc1 [FLORALOZONE]	–	–	–	–	276.6 °C	logP [1, 2]: 3.94

Compound	Bp. [° C.] (Table 1, components of MARINA)	logP ([1]; Table 1, components of MARINA)	Bp. [° C.] (list of selected fragrances)	logP ([1]; list of selected fragrances)	Bp. [° C.] [2]	further results
CCCCCCOC(=O)c1ccccc1O [HEXYLSALICYLAT, hexyl salicylate]	327 °C	5.06	327 °C	4.98	–	–
CCCCCC1(C)CCC(C)(C)C1=O (stereo not shown) [VELOUTONE]	–	–	–	–	–	Bp. [° C.] (Table 2, components of PEACH): 247 °C; logP ([1]; Table 2, components of PEACH): 4.34
CCCCCCCCC=O [ALDEHYD C 9]	191 °C	3.27	–	–	–	–
CC/C=C/CCOC(=O)c1ccccc1O [HEXENYLSALICYLAT CIS-3]	–	–	301 °C	4.5	–	–
CCCCCCCCCC(C)C=O (stereo not shown) [ALDEHYD C12 MNA]	–	–	–	–	171 °C	logP [1, 2]: 4.67
COC(=O)c1ccccc1N [[…]]	256 °C	–	256 °C	2.12	256 °C	–
CCCCCCCCCCCC=O [ALDEHYD C12 LAURIN]	249 °C	4.75	–	–	–	–
CCCCCCCCCCCCCCCCCC=O [OCTADECANAL]	–	–	250 °C	1.83	–	–
CC(=O)O[C@@H]1C[C@H]2CC[C@]1(C)C2(C)C (racemic) [ISOBORNYLACETAT]	224 °C	3.86	–	–	–	–
Cc1ccc2c(c1)OCC(=O)CO2 [CALONE]	289 °C	2.43	–	–	289 °C	logP [1, 2]: 2.43
NEROL 900	–	–	–	–	228 °C	logP [1, 2]: 3.47
CCCCCCCCCCCCCC=O [TETRADECANAL]	–	–	286 °C	2.89	–	–
CCCCCCCCC1CCC(=O)O1 (stereo not shown) [DODECALACTON GAMMA]	–	–	–	–	–	Bp. [° C.] (Table 2, components of PEACH): 291 °C; logP ([1]; Table 2, components of PEACH): 3.55
C=CC(C)(O)CCC=C(C)C (stereo not shown) [LINALOOL]	–	–	–	–	198 °C	logP [1, 2]: 3.38
3-METHYLBUTYL-CYCLOHEXANOL	–	–	245 °C	4.49	–	–
CCC(C)=CCCC(C)=CC#N [LEMONILE]	–	–	–	–	249 °C	logP [1, 2]: 3.96
MENTHON L/ISOMENTHON D	204 °C	2.87	–	–	–	–
c1ccc2[nH]ccc2c1 [INDOL FF]	–	–	–	–	254 °C	Bp. [° C.] (Table 2, components of PEACH): 254 °C; logP ([1]; Table 2, components of PEACH): 2.05; logP [1, 2]: 2.05
CCCCCC(C)=O [HEPTANON-2]	–	–	–	–	–	Bp. [° C.] (Table 2, components of PEACH): 150 °C; logP ([1]; Table 2, components of PEACH): 1.73
c1ccc(Oc2ccccc2)cc1 [DIPHENYLOXID]	258 °C	4.05	–	–	258 °C	logP [1, 2]: 4.05
CCc1occc(=O)c1O [ETHYLMALTOL]	–	–	–	–	290 °C	logP [1, 2]: 0.3
CCCCC(=CCC#N)CC	–	–	230 °C	3.98	–	–
C=CC(C)CCCC(C)(C)O (stereo not shown) [DIHYDROMYRCENOL]	194 °C	3.47	–	–	194 °C	logP [1, 2]: 3.47
CCCCCC1CCCC(=O)O1 (stereo not shown) [DECALACTON DELTA]	–	–	–	–	–	Bp. [° C.] (Table 2, components of PEACH): 267 °C; logP ([1]; Table 2, components of PEACH): 2.57

Compound	Bp. [° C.] (Table 1, components of MARINA)	logP ([1]; Table 1, components of MARINA)	Bp. [° C.] (list of selected fragrances)	logP ([1]; list of selected fragrances)	Bp. [° C.] [2]	further results
CCCC(=O)OCCC(C)C [ISOAMYLBUTYRAT]	–	–	–	–	–	Bp. [° C.] (Table 2, components of PEACH): 179 °C; logP ([1]; Table 2, components of PEACH): 3.25
C=C1CC/C=C(/C)CC[C@@H]2[C@@H]1CC2(C)C [CARYOPHYLLEN NAT. REKT.]	–	–	–	–	251 °C	logP [1, 2]: 6.3
O=Cc1ccc2c(c1)OCO2 [HELIOTROPIN/PIPERONAL]	–	–	263 °C	1.35	–	–
CC(C)C1CC=C(CCC=O)CC1 (stereo not shown) [3-[4-ISOPROPYLCYCLOHEXEN-1-YL]PROPANAL]	–	–	258 °C	4.8	–	–
Cc1ccc2c(c1)OC(=O)C2C (stereo not shown) [FURAMINTON/TONKALACTONE ™]	–	–	–	–	–	Bp. [° C.] (Table 2, components of PEACH): 284 °C; logP ([1]; Table 2, components of PEACH): 1.44
O=C1CCCCCCCCCCCCCCC1 [8-CYCLOHEXADECANONE, 8-cyclohexadecanone]	–	–	323 °C	5.97	–	Bp. [° C.] (Table 2, components of PEACH): 323 °C; logP ([1]; Table 2, components of PEACH): 5.82
CC(=O)OC1CC2CC1C1CC=CC21 (stereo not shown) [VERDYL ACETATE]	–	–	260 °C	2.36	–	–
CC(C)CCCC(C)CCO (stereo not shown) [TETRAHYDROGERANIOL]	212 °C	3.64	–	–	212 °C	logP [1, 2]: 3.64
CCCCCCCCCC=O [ALDEHYD C10]	208.5 °C	3.76	–	–	208.5 °C	Bp. [° C.] (Table 2, components of PEACH): 208.5 °C; logP ([1]; Table 2, components of PEACH): 3.76; logP [1, 2]: 3.76
O=C1CCCCCCCCCCCC(=O)OCCO1 [ETHYLENBRASSYLAT]	382 °C	4.71	–	–	–	–
CC(C=O)Cc1ccc(C(C)C)cc1 (stereo not shown)	–	–	262 °C	3.61	262 °C	logP [1, 2]: 3.91
COC(OC)C(C)(C)CC=C(C)C [AMAROCIT ®]	–	–	–	–	203 °C	logP [1, 2]: 3.39
CC1CCC(C(C)(C)S)C(=O)C1 (stereo not shown) [THIOMENTHANON-8,3]	–	–	–	–	–	Bp. [° C.] (Table 2, components of PEACH): 271 °C; logP ([1]; Table 2, components of PEACH): 2.78
CC/C=C(\C)C(O)CCCCC (stereo not shown) [UNDECAVERTOL]	235 °C	4.05	–	–	–	–
CC1(C)C2CC=C(CCC=O)C1C2 (stereo not shown) [PINOACETALDEHYD]	242 °C	3.76	–	–	–	–
CCCCCCCCCCC=CC#N [OZONIL]	293 °C	5.04	–	–	–	–
CCCCCCCC=O [ALDEHYD C 8]	171 °C	2.78	–	–	–	Bp. [° C.] (Table 2, components of PEACH): 171 °C; logP ([1]; Table 2, components of PEACH): 2.78
CC1CC(C)(c2ccccc2)OC(C)O1 (stereo not shown)	–	–	279.2 °C	2.79	–	–
CC(C)=CCCC(C)=CCCc1ccncc1	307 °C	5.95	–	–	–	–
HERBYLPROPIONAT	276.15 °C	3.68	276.15 °C	2.89	–	–
CCCC1(C)OC2CC34CC(C(C)(C)C3CCC4C)C2(C)O1 (stereo not shown)	–	–	336 °C	5.94	–	–
CCC(CC)COC(=O)CC1C=CCC1 (stereo not shown) [(2-CYCLOPENTEN-1-ACETIC ACID-2-ETHYLBUTYL ESTER]	–	–	252 °C	–	–	–
CC(=O)OC1CCCCC1C(C)(C)C (stereo not shown) [AGRUMEX LC]	227 °C	–	–	–	227 °C	Bp. [° C.] (Table 2, components of PEACH): 227 °C
